Target: T1, sGC α1/β1 heterodimer stably expressed in CHO-K1 cells (CHO-K1/sGC) (Homo sapiens, UniProt Q02108+Q02153)
T1 construct: expressed in transfected cells
T1 sequence (Q02108 1-690): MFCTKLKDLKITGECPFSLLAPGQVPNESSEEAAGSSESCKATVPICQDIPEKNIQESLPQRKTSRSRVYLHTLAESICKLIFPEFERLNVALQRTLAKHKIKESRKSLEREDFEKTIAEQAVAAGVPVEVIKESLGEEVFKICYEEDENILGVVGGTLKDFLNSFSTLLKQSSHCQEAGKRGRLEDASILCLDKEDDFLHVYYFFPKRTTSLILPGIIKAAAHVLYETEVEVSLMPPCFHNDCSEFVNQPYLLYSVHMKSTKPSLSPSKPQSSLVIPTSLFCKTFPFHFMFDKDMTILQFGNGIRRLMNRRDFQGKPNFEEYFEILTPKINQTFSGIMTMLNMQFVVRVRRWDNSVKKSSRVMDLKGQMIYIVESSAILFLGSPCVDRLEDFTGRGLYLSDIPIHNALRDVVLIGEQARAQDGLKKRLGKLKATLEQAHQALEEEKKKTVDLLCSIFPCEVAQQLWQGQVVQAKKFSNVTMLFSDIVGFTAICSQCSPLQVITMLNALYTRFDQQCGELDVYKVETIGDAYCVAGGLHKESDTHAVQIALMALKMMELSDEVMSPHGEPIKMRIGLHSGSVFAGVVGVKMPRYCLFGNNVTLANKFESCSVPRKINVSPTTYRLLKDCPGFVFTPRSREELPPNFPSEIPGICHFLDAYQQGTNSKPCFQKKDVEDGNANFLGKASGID
T1 sequence (Q02153 1-619): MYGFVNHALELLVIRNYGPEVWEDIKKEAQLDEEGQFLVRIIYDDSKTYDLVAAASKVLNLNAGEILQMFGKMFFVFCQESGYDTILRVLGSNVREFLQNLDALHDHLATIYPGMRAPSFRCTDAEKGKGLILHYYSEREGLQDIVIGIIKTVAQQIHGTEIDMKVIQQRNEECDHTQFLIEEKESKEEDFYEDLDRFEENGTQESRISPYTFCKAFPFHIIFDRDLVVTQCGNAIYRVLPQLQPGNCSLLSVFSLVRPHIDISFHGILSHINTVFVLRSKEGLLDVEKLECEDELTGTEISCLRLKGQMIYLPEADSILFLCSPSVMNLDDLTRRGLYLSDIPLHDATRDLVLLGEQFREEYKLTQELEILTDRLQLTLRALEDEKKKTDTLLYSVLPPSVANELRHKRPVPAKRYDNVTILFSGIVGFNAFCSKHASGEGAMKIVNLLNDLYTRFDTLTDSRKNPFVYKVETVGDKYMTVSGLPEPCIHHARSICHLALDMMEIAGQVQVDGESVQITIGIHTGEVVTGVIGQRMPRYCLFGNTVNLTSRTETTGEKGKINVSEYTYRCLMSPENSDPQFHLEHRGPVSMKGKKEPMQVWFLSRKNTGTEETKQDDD
Test: Cell-based sGC Functional Assay (CASA Assay)
Conditions: for Emax: CHO-K1, activation as percentage of maximum cGMP production of Compound A (set to 100%), read-out: % Act.; for EC50: inflection point of cGMP generation in CHO-K1/sGC cells, 4P fit, 1 hr at 37° C., read-out: IP
Source text: sGC is a heme-containing enzyme that converts GTP to secondary messenger cGMP. Increases in cGMP levels affect several physiological processes including vasorelaxation through multiple downstream pathways. […] Heme-dependent activators (HDAs) preferentially activate sGC containing a ferrous heme group. To determine the effect of sGC activators on enzyme activity, the CASA assay was developed to monitor the generation of cGMP in a cell line that stably expresses the heterodimeric sGC protein.
A CHO-K1 cell line stably expressing the sGC α1/β1 heterodimer was generated using a standard transfection protocol. CHO-K1 cells were transfected with plasmids pIREShyghsGCα1 and pIRESneo-hsGCβ1 simultaneously using FUGENE reagent. Clones that stably express both subunits were selected with hygromycin and neomycin for ˜2 weeks. Clone #7 was chosen for the assay and was designated CHO-K1/sGC. CHO-K1/sGC cells were maintained in F-K12 medium containing 10% heat-inactivated Fetal Bovine Serum (FBS), 100 μg/mL penicillin/streptomycin, 0.5 mg/mL hygromycin and 0.25 mg/mL G418. The cells were then cryopreserved in LN2. On the day of the assay, cells thawed and resuspended in EBSS Assay Buffer (EAB, Sigma, E3024) supplemented with 5 mM MgCl2, 10 mM HEPES (4-(2-hydroxyethyl)piperazine-1-ethanesulfonic acid) and 0.05% BSA (bovine serum albumin) and cell density was then adjusted to 4×10^5/mL with EAB. IBMX (3-isobutyl-1-methylxanthin, 0.5 mM) was added to inhibit degradation of cGMP. Compounds were diluted from DMSO stock solutions and added to the assay at a final DMSO concentration of 2.5%. Cells were incubated with compounds in the presence and absence of 1 μM of Diethylenetriamine/nitric oxide adduct (DETA-NO; Sigma, 17018) for 1 hr at 37° C. At the end of the incubation period, the reaction was terminated and the cells were lysed with the detection reagents from Cisbio Kits. The level of intracellular cGMP was determined using an HTRF-based assay kit (CisBio, 62GM2PEC), which detects the displacement of a fluorescence labeled cGMP from its specific antibody. The cGMP produced by test compounds was directly compared to the maximum cGMP production (this value was set to equal 100% activation.) of the published sGC-HDA Compound A:
(Example 1 in WO 2010/065275, published Jun. 10, 2010). The test compounds' activity were then expressed as a percentage of Compound A, the standard in every experiment. This percent activation was calculated either in the presence or absence of DETA-NO which was then plotted. IP and maximum fold induction was derived using ADA analysis software for 4P fit.

Structure (SMILES)	Emax	EC50
[2H]C([2H])([2H])n1ncc2c(-c3nc(N)c4c(n3)NC(=O)C4(C)c3cncc(OC)c3)nc(CCC(F)(F)C(F)(F)F)nc21 (stereo not drawn) [Example 14, 4-Amino-5-(5-methoxypyridin-3-yl)-5-methyl-2-(1-(methyl-d3)-6-(3,3,4,4,4-pentafluorobutyl)-1H-pyrazolo[3,4-d]pyrimidin-4-yl)-5,7-dihydro-6H-pyrrolo[2,3-d]pyrimidin-6-one]	131%	709 nM
Cn1ncc2c(-c3nc(N)c4c(n3)NC(=O)C4(c3cnoc3)C3CC3)nc(CCC(F)(F)C(F)(F)F)nc21 (stereo not drawn) [Example 16, 4-Amino-5-cyclopropyl-5-(isoxazol-4-yl)-2-(1-methyl-6-(3,3,4,4,4-pentafluorobutyl)-1H-pyrazolo[3,4-d]pyrimidin-4-yl)-5,7-dihydro-6H-pyrrolo[2,3-d]pyrimidin-6-one]	107%	160 nM
CCC1(c2ccc(OC)nc2)C(=O)Nc2nc(-c3nc(CCC(F)(F)C(F)(F)F)nc4c3cnn4C)nc(N)c21 (stereo not drawn) [Example 17, 4-Amino-5-ethyl-5-(6-methoxypyridin-3-yl)-2-(1-methyl-6-(3,3,4,4,4-pentafluorobutyl)-1H-pyrazolo[3,4-d]pyrimidin-4-yl)-5,7-dihydro-6H-pyrrolo[2,3-d]pyrimidin-6-one]	116%	122 nM
Cc1nc(C2(C)C(=O)Nc3nc(-c4nc(CCC(F)(F)C(F)(F)F)nc5c4cnn5C)nc(N)c32)no1 (stereo not drawn) [Example 20, 4-Amino-5-methyl-5-(5-methyl-1,2,4-oxadiazol-3-yl)-2-(1-methyl-6-(3,3,4,4,4-pentafluorobutyl)-1H-pyrazolo[3,4-d]pyrimidin-4-yl)-5,7-dihydro-6H-pyrrolo[2,3-d]pyrimidin-6-one]	132%	103 nM
Cn1ncc2c(-c3nc(N)c4c(n3)NC(=O)C4(C)c3ccccn3)nc(CCCC(F)(F)F)nc21 (stereo not drawn) [Example 21, 4-Amino-5-methyl-2-(1-methyl-6-(4,4,4-trifluorobutyl)-1H-pyrazolo[3,4-d]pyrimidin-4-yl)-5-(pyridin-2-yl)-5,7-dihydro-6H-pyrrolo[2,3-d]pyrimidin-6-one]	111%	138 nM
Cn1ncc2c(-c3nc(N)c4c(n3)NC(=O)C4(C)c3ccccn3)nc(CCC(F)(F)C(F)(F)F)nc21 (stereo not drawn) [Example 22, 4-Amino-5-methyl-2-(1-methyl-6-(3,3,4,4,4-pentafluorobutyl)-1H-pyrazolo[3,4-d]pyrimidin-4-yl)-5-(pyridin-2-yl)-5,7-dihydro-6H-pyrrolo[2,3-d]pyrimidin-6-one]	103%	71 nM

The remaining lines, values ahead:

Emax	EC50	Structure (SMILES)
89%	29 nM	[2H]C([2H])([2H])n1ncc2c(-c3nc(N)c4c(n3)NC(=O)C4(C)c3ccc4cccnc4c3)nc(CCC(F)(F)C(F)(F)F)nc21 (stereo not drawn) [Example 13, 4-Amino-5-methyl-2-(1-(methyl-d3)-6-(3,3,4,4,4-pentafluorobutyl)-1H-pyrazolo[3,4-d]pyrimidin-4-yl)-5-(quinolin-7-yl)-5,7-dihydro-6H-pyrrolo[2,3-d]pyrimidin-6-one]
100%	475 nM	Cn1cc(C2(C3CC3)C(=O)Nc3nc(-c4nc(CCC(F)(F)C(F)(F)F)nc5c4cnn5C)nc(N)c32)cn1 (stereo not drawn) [Example 15, 4-Amino-5-cyclopropyl-5-(1-methyl-1H-pyrazol-4-yl)-2-(1-methyl-6-(3,3,4,4,4-pentafluorobutyl)-1H-pyrazolo[3,4-d]pyrimidin-4-yl)-5,7-dihydro-6H-pyrrolo[2,3-d]pyrimidin-6-one]
88%	411 nM	[2H]C([2H])([2H])n1ncc2c(-c3nc(N)c4c(n3)NC(=O)C4(C)c3ccnc(C(=O)OC)c3)nc(CCC(F)(F)C(F)(F)F)nc21 (stereo not drawn) [Example 18, Methyl 4-(4-amino-5-methyl-2-(1-(methyl-d3)-6-(3,3,4,4,4-pentafluorobutyl)-1H-pyrazolo[3,4-d]pyrimidin-4-yl)-6-oxo-6,7-dihydro-5H-pyrrolo[2,3-d]pyrimidin-5-yl)picolinate]
